Assay [1] addresses T1, Bromodomain-containing protein 4 (Homo sapiens, UniProt O60885). In words: Binding affinity to human recombinant BRD4BD2 (333 to 460 residues) expressed in Escherichia coli […] (DE3) by fluorescence polarization analysis.
Assay [2] has as its target T1, Bromodomain-containing protein 4. In words: Binding affinity to human recombinant BRD4BD1 (44 to 168 residues) expressed in Escherichia coli […] (DE3) by fluorescence polarization analysis. (Fluorescence polarisation rises when a labelled molecule tumbles more slowly, as on binding a larger partner.)

Bounds are passed on as bounds.

For orientation: Ki means a dissociation constant, usually derived from enzyme kinetics or from competition with a known ligand. As to `CNc1cc(-c2ccc(=O)n(C)c2)nc(NCc2ccc(OC(F)(F)F)cc2)n1`, the Ki in assay [1] is greater than 100 µM; in assay [2], 0.76 µM.
`CNc1cc(-c2ccc(=O)n(C)c2)nc(NCc2cccc3ccccc23)n1`: the inhibitory constant (Ki) in assay [1] is greater than 100 µM; in assay [2] it was 0.68 µM.
The matching figures for `CNc1nc(NCc2cccc(-c3ccc(=O)n(C)c3)c2)cc(-c2ccc(=O)n(C)c2)n1`: 1.44 µM and 0.91 µM.

Source of the values: ChEMBL document CHEMBL5360664, “Design, Construction, and Screening of Diversified Pyrimidine-Focused DNA-Encoded Libraries” (ACS Med Chem Lett, 2023).
